Source: PMC5502072 (Investigational New Drugs, 2017)
“Also recorded” adds a separate entry of the source. Like-named read-outs stand apart in the source and are kept apart here.

Key:
[1] = system: advanced solid tumors; conditions: all responders had FGFR2 or FGFR3 translocations; cited from earlier work
[2] = system: lung squamous cell carcinoma; urothelial carcinoma with FGFR3 alterations; conditions: cited from earlier work
[3] = system: several tumour types; conditions: cited from earlier work
[4] = system: advanced solid tumours; assay: Preliminary antitumour efficacy (RECIST v1.1); assay type: in vivo, human
Description: Tumour assessments were performed according to Response Evaluation Criteria in Solid Tumors version 1.1 (RECIST v1.1) at baseline, on day 21 of the first treatment cycle, then every 6 weeks after the start of treatment for 12 weeks, and thereafter every 12 weeks (±1 week) until discontinuation of study treatment or withdrawal of consent.

[5] = previously treated advanced/metastatic UC with FGFR3 alterations
[6] = one patient with FGFR1-amplified squamous NSCLC, 80 mg bid

Molecule: COc1cc(OC)cc(N(CCNC(C)C)c2ccc3ncc(-c4cnn(C)c4)nc3c2)c1 [JNJ-42756493]
- Patients with PR [1]: 4/23

Molecule: CCN1CCN(c2ccc(Nc3cc(N(C)C(=O)Nc4c(Cl)c(OC)cc(OC)c4Cl)ncn3)cc2)CC1 [BGJ398]
- Patients with PR ([2]; lung squamous cell carcinoma, selected by FGFR amplification status): 2/17
- Complete response [2, 5]: one unconfirmed complete response
- Patients with PR [2, 5]: 8/25

Molecule: AZD4547
- Patients with stable disease ([3]; 4/21 additional patients): 19%
- Best response [3, 6]: partial response
- Duration of PR [3, 6]: ≥ 12 weeks
- Patients with stable disease (≥4 weeks' duration) ([4]; Part A): 70%
- Patients with stable disease ≥4 weeks ([4]; Part A): 21/30
- Range of percentage change in the sum of the diameters of target lesions ([4]; Part A): –6.8% to 48.9
- Median percentage change in the sum of the diameters of target lesions ([4]; Part A (25/30 patients)): 5.9%
- Patients with stable disease (≥4 weeks' duration) ([4]; Part A, 40 mg bid): 3 n
- Patients with stable disease (≥4 weeks' duration) ([4]; Part A, 80 mg bid): 3 n
- Patients with stable disease (≥4 weeks' duration) ([4]; Part A, 120 mg bid): 5 n
- Patients with stable disease (≥4 weeks' duration) ([4]; Part A, 160 mg qd): 10 n
- Range of percentage change in the sum of the diameters of target lesions ([4]; Part B): –16.3% to 23.4
- Median percentage change in the sum of the diameters of target lesions ([4]; Part B (all patients)): 3.0%
- Patients continuing to experience stable disease at 10 weeks ([4]; Part B, 80 mg bid): 25.0%
- Patients with stable disease ≥10 weeks ([4]; Part B, 80 mg bid): 1/4
- Complete responses and partial responses (RECIST v1.1) ([4]; Parts A and B): No complete or partial responses were observed; also recorded: not observed
